From ChEMBL document CHEMBL1136584, “Synthesis and preliminary biological evaluation of 6-O-[11C]-[(methoxymethyl)benzyl]guanines, new potential PET breast cancer imaging agents for the DNA repair protein AGT” (Bioorg Med Chem Lett, 2003)

Key:
[1] = target: T1, Methylated-DNA--protein-cysteine methyltransferase (Homo sapiens) (UniProt P16455); assay: In vitro inhibitory activity of compound against AGT (O6-alkylguanine-DNA alkyltransferase) at a concentration of 10 uM using breast cancer MCF cells, expressed as Fmol O6-MeG removed/mg of protein; format: cell-based
T1 sequence (whole entry): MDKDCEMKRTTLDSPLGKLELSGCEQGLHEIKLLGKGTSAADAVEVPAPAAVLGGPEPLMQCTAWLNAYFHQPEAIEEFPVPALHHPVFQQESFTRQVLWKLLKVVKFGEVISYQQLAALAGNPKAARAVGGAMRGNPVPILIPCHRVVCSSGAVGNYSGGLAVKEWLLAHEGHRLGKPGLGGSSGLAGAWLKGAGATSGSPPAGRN

[2] = target: T1, Methylated-DNA--protein-cysteine methyltransferase (Homo sapiens); assay: In vitro inhibitory activity of compound against AGT (O6-alkylguanine-DNA alkyltransferase) at a concentration of 50 uM using breast cancer MCF cells, expressed as Fmol O6-MeG removed/mg of protein; format: cell-based
[3] = target: T1, Methylated-DNA--protein-cysteine methyltransferase (Homo sapiens); assay: In vitro inhibitory activity of compound against AGT (O6-alkylguanine-DNA alkyltransferase) at a concentration of 1 uM using breast cancer MCF cells, expressed as Fmol O6-MeG removed/mg of protein; format: cell-based
[4] = target: T1, Methylated-DNA--protein-cysteine methyltransferase (Homo sapiens); assay: In vitro inhibitory activity of compound against AGT (O6-alkylguanine-DNA alkyltransferase) at a concentration of 0.1 uM using breast cancer MCF cells, expressed as Fmol O6-MeG removed/mg of protein; format: cell-based
[5] = target: T1, Methylated-DNA--protein-cysteine methyltransferase (Homo sapiens); settings: MCF7; 50 uM
Description: In vitro inhibitory activity of compound against AGT (O6-alkylguanine-DNA alkyltransferase) at a concentration of 50 uM using breast cancer MCF-7 cells, expressed as Fmol O6-MeG removed/mg of protein

[6] = target: T1, Methylated-DNA--protein-cysteine methyltransferase (Homo sapiens); settings: MCF7; 0.1 uM
Description: In vitro inhibitory activity of compound against AGT (O6-alkylguanine-DNA alkyltransferase) at a concentration of 0.1 uM using breast cancer MCF-7 cells, expressed as Fmol O6-MeG removed/mg of protein

[7] = target: T1, Methylated-DNA--protein-cysteine methyltransferase (Homo sapiens); settings: MCF7; 10 uM
Description: In vitro inhibitory activity of compound against AGT (O6-alkylguanine-DNA alkyltransferase) at a concentration of 10 uM using breast cancer MCF-7 cells, expressed as Fmol O6-MeG removed/mg of protein

[8] = target: T1, Methylated-DNA--protein-cysteine methyltransferase (Homo sapiens); settings: MCF7; 1 uM
Description: In vitro inhibitory activity of compound against AGT (O6-alkylguanine-DNA alkyltransferase) at a concentration of 1 uM using breast cancer MCF-7 cells, expressed as Fmol O6-MeG removed/mg of protein

COCc1cccc(COc2[nH]c(N)nc3ncnc2-3)c1
Activity ((fM of O6-MeG removed) (mg of protein)-1) [1]: 21 | Activity ((fM of O6-MeG removed) (mg of protein)-1) [2]: 15 | Activity ((fM of O6-MeG removed) (mg of protein)-1) [3]: 1140 | Activity ((fM of O6-MeG removed) (mg of protein)-1) [4]: 1640

Nc1nc(OCc2ccccc2)c2nc[nH]c2n1
Activity ((fM of O6-MeG removed) (mg of protein)-1) [5]: 19 | Activity ((fM of O6-MeG removed) (mg of protein)-1) [6]: 2390 | Activity ((fM of O6-MeG removed) (mg of protein)-1) [7]: 50 | Activity ((fM of O6-MeG removed) (mg of protein)-1) [8]: 164

COCc1ccccc1COc1[nH]c(N)nc2ncnc1-2
Activity ((fM of O6-MeG removed) (mg of protein)-1) [1]: 2490 | Activity ((fM of O6-MeG removed) (mg of protein)-1) [2]: 660 | Activity ((fM of O6-MeG removed) (mg of protein)-1) [3]: 2300 | Activity ((fM of O6-MeG removed) (mg of protein)-1) [4]: 2340

COCc1ccc(COc2[nH]c(N)nc3ncnc2-3)cc1
Activity ((fM of O6-MeG removed) (mg of protein)-1) [1]: 35 | Activity ((fM of O6-MeG removed) (mg of protein)-1) [2]: 58 | Activity ((fM of O6-MeG removed) (mg of protein)-1) [3]: 292 | Activity ((fM of O6-MeG removed) (mg of protein)-1) [4]: 457
